Test results: publication PMC12362618, “Development of the First Small-Molecule Inhibitor Targeting Oncostatin M for Treatment of Breast Cancer” (Journal of Medicinal Chemistry, 2025)
Entries after “also recorded” stand apart in the source; their conditions may differ. Like-named read-outs stand apart in the source and are kept apart here.

Experiments:
gp130 = target: T1, gp130 (Homo sapiens, UniProt P40189); assay: Fluorescence quenching check of SMI binding to gp130; settings: data not shown
T1 construct: purchased R&D Systems 671-GP
T1 sequence (P40189 23-619 limits assumed): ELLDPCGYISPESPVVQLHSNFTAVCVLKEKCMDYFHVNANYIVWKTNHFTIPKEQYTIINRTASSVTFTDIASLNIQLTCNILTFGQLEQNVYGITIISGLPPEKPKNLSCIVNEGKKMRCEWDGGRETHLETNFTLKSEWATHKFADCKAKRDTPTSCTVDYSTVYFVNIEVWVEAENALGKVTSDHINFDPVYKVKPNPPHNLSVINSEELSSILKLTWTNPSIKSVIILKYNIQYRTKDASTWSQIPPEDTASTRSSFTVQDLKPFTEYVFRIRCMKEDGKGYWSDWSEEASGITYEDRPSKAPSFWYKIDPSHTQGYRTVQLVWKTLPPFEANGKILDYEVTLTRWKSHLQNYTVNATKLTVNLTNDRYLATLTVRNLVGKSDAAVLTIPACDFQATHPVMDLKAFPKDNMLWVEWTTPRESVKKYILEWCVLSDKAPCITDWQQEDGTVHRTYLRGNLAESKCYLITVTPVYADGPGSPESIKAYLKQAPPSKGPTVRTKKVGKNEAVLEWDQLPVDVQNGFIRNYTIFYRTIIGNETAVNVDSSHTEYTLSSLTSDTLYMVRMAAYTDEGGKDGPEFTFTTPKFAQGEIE

[1] = tested on: OSM-mediated STAT3 phosphorylation in MCF-7 cells; assay: pSTAT3 ELISA in MCF-7 cells treated with OSM ± SMI; type: cell-based; settings: Homo sapiens, MCF7
Experimental: For phospho-STAT3 (pSTAT3) ELISAs, T47D MDA-MB-231, and MCF-7 cells were seeded in 12- or 24-well plates at 70–75% confluency and allowed to adhere overnight, after which cells were serum-starved with serum-free RPMI-1640 for 4 h. SMIs (10 μM in DMSO or serially diluted to specified concentrations from a 100 mM stock in DMSO) and human recombinant OSM (10 ng/mL; PeproTech; #300–10T-10UG) were incubated in serum-free RPMI-1640 medium for 1 h. After incubation, the SMI-10 analogs or SMI-10B13 and OSM were added to the serum-starved cells for 30 min. Immediately afterward, the cells were lysed using 1x PathScan Sandwich ELISA Lysis Buffer (Cell Signaling Technology; #7018S), collected, and stored at −20 °C. Lysates were analyzed for pSTAT3 levels using either the PathScan Phospho-STAT3 (Tyr705) Sandwich ELISA Antibody Pair kit (Cell Signaling Technology; #7146) or Human/Mouse Phospho-STAT3 (Y705) DuoSet IC ELISA (R&D Systems; DYC4607B), according to manufacture’s protocol. pSTAT3 expression was measured with absorbance at 450 nm and quantified by comparison relative to OSM-induced pSTAT3 levels. To calculate an IC50 for SMI-10B13, a standard curve was generated as described in the DuoSet IC ELISA datasheet to determine the concentration of pSTAT3.

[2] = tested on: MCF-7-luc-OSM-overexpressing cells; type: in vivo
Experimental: To evaluate SMI-10B13 on OSM inhibition in vivo, athymic nu/nu mice were randomized and given equal dose of either vehicle or SMI-10B13 (50 mg/kg) 12 h before tumor cell injection. Mice were then injected with 2 × 10^6 cells in the fourth mammary fat pad and monitored for tumor growth over 40 days, receiving either vehicle or SMI-10B13 treatment 3x weekly and evaluated for tumor growth until the end point of the experiment (Figure A).
(§1) Seven- to eight-week-old athymic nu/nu mice were purchased from Jackson Laboratory and quarantined for 6 days. Twelve hours before tumor cell injection, the mice were grouped and injected intraperitoneally (i.p.) with 50 mg/kg of SMI-10B13 or vehicle (10% DMSO, 10% EtOH, 20% Cremophor EL, 60% propylene glycol; diluted in half with PBS). The following morning, MCF-7-Luc-flOSM cells (described above) were grown to 70–75% confluency, and the cells were concentrated to 4.0 × 10^7 cells/mL in PBS containing serum-free RPMI-1640. A 50 μL cell suspension was injected into the fourth mammary fat pad, resulting in 2.0 × 10^6 cells/injection. Mice were then injected (via i.p.) 3x weekly with SMI-10B13 or the vehicle control. Mice were also injected 1x weekly with D-luciferin (PerkinElmer; 122799–5) for bioluminescence detection for a period of 40–50 days, and 3x weekly for tumor growth via caliper measurement. Animals were sacrificed, and their serum and tumors were collected for analysis. Organs were harvested, and ex vivo imaging was performed to evaluate metastasis. All in vivo and ex vivo imaging was performed as previously described. All animal experiments were performed following the protocols evaluated and approved by the Boise State University Institutional Animal Care and Use Committee (IACUC) (Ethics Approval Number: AC23-043).

[3] = tested on: MCF-7-luc-OSM-overexpressing breast tumor cells; assay: ER+ orthotopic xenograft, survival and metastasis over 50 days; type: in vivo, athymic nu/nu mice
Experimental: To evaluate the effectiveness of SMI-10B13 against survivability and metastasis, we performed a related but separate experiment. As before, mice were treated with either vehicle or SMI-10B13 12 h prior to tumor cell injection and monitored for tumor growth while receiving treatment 3x weekly (Figure A). […] After 50 days, all mice were sacrificed, and metastases were evaluated with ex vivo imaging. […] Thus, for the first time, we have shown that an anti-OSM small molecule inhibitor may inhibit breast cancer progression and metastasis.
as §1

OSM = target: T2, OSM (Homo sapiens, UniProt P13725); parameters: method as in earlier report of the authors (Mass et al.); settings: binds to OSM's site III pocket; ref earlier report of the authors (Mass et al.); read-out: dissociation constant (KD), previously described; cited from earlier work
T2 sequence (P13725 26-252): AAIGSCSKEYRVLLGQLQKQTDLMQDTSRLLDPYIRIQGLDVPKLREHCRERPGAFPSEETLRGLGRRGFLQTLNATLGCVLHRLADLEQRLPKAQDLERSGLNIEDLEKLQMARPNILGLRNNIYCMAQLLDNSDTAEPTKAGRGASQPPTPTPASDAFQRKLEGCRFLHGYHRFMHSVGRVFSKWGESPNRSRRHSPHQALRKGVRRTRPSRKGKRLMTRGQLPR

For `O=C(O)/C=C/c1cc(-c2ccc3cc[nH]c3c2)c(-c2ccc3cc[nH]c3c2)o1` [SMI-10B13, (E)-3-(4,5-di(1H-Indol-6-yl)furan-2-yl)acrylic Acid], the “Binding to gp130” value (gp130) was “does not bind to gp130”, the IC50 ([1]; Figure S3 graph B (MCF-7 by order), four parameter nonlinear regression, given as negative log value, read-out: LogIC50 (graph B) (converted)) was 164 nM and the IC50 ([1]; MCF-7 cells, ELISA, read-out: IC50 for inhibition of STAT3 phosphorylation) was 164 nM. The “Tumor size diameter (mm) at end point vs vehicle control” value ([2]; 50 mg/kg i.p. 3x weekly, 40 days, caliper) was “significant reduction in tumor mm size”, the “Bioluminescent tumor detection vs vehicle control” value ([2]; 50 mg/kg i.p. 3x weekly, 40 days, weekly imaging) was “significant reduction in bioluminescent detection” and the “Signs of drug-related toxicity in mice” value ([2]; mouse, in vivo) was “none of the mice injected with SMI exhibited any signs of drug-related toxicity”. The “Survival (Kaplan-Meier) vs vehicle” value ([3]; 50 mg/kg i.p. 3x weekly, 50 days, p = 0.04) was “improved survival; also recorded: prolonged survival; also recorded: increase survival”, the “Lung metastases fluorescent intensity (ex vivo imaging)” value ([3]; 50 mg/kg i.p. 3x weekly, after 50 days) was 41.9 × 10^5 intensity and the “Tumor size vs vehicle” value ([3]; 50 days experiment, end point) was “overall smaller tumors”. For the same molecule, the “Lung metastasis intensity vs vehicle” value ([3]; ex vivo imaging, 50 days) was “reduction in intensity was not statistically significant; also recorded: trend toward significance in decreasing lung metastasis intensity”.
For `O=C(O)/C=C/c1cc(-c2ccc3c(c2)OCO3)c(-c2ccc3c(c2)OCO3)o1` [SMI-10B, (E)-3-(4,5-Bis(benzo[d][1,3]dioxol-5-yl)furan-2-yl)acrylic acid], the Kd (OSM) is given as < 13000 nM.
